Type in all cases: in vivo, rat
Test [1] has as its system obese Zucker fa/fa rats. As to the kind of experiment: Pharmacological Study Report II: random and fasting (4 h) blood glucose and plasma insulin levels. The note with it: for Baseline Insulin (fasting) / Change in Insulin (fasting) / Week 4 Insulin (fasting): Mean ± SD; for Change in Insulin (fasting): change over the 4 week treatment period; for Week 4 Insulin (fasting): week 4 of treatment. As to the method: (§1) Thirty-six obese Zucker fa/fa and six lean Zucker fa/? male rats obtained from Charles River, were housed under normal vivarium conditions on a 12 hour light/dark cycle. The rats were kept two to a cage with food and water available ad lib, except during the weekly, 4 hour fasts. Water continued to be available during these fasts.
(§2) Compound A corresponds to Cariporide. Compound B corresponds to 2-Methyl-4,5-di-(methylsulfonyl)-benzoyl-guanidine hydrochloride hydrate. Compounds A and B were supplied in powder form by Merck Serono. Drugs were incorporated into a pelleted diet (LabDiet, 5001) by Research Diets, Inc (New Brunswick, N.J.) at concentrations of 0.44 g/kg or 0.88 g/kg of diet to yield approximate doses of 40 or 80 mg/kg. The concentration was calculated based on the assumption that a 300 g rat would eat about 30 g/d of chow. The same chow, but without drug, was fed to rats of both the lean and fa/fa control group animals.
(§3) One week prior to the start of the study, all rats were weighed. After a 4 hour fast, a blood sample was obtained for the determination of blood glucose, insulin, and glycosylated hemoglobin levels (HbA1c). Animals were then sorted on the basis of these parameters into the groups listed below. Rats were eight weeks of age at the onset of treatment.
(§4) • 1. ZF rats (fa/fa) (n=6) chow without drug • 2. ZF rats (fa/fa) (n=6) compound A (40 mg/kg/day) • 3. ZF rats (fa/fa) (n=6) compound A (80 mg/kg/day) • 4. ZF rats (fa/fa) (n=6) compound B (40 mg/kg/day) • 5. ZF rats (fa/fa) (n=6) compound B (80 mg/kg/day) • 6. lean Zucker rats (fa/?) (n=6) chow without drug Dosing Regime
(§5) Treatment appropriate chow was continuously available for 4 weeks except during scheduled 4 h fasts conducted once per week.
Both random and fasting (4 h) blood glucose levels were determined using a hand-held glucometer (OneTouch Ultra, Lifescan, Inc. Milapitas, Calif.) on blood obtained from tail capillary samples. Plasma insulin levels were determined by a rat specific ELISA (Ultra Sensitive Rat Insulin ELISA Kit, Crystal Chem, Inc., Chicago, Ill.). The 4 h fast period started at 9 a.m. and ended after a blood draw at 1 p.m.

The subject of test [2] is obese Zucker fa/fa rats. Briefly: Pharmacological Study Report II: HbA1c levels. The note with it: Mean ± SD; for Base line HbA1c: baseline; for Change in HbA1c: change over the 4 week treatment period; for Week 4 HbA1c: week 4 of treatment. As to the method: as §1, §2, §3, §4, §5
HbA1c level were determined using a DCA 2000 analyzer (Bayer Healthcare LLC, Elkhart Ind.) prior to beginning the study and again at the end of the 4th week treatment period.

Test [3] has as its system obese Zucker fa/fa rats. As to the kind of experiment: Pharmacological Study Report II: 2H-glucose disposal test (2H-GDT) on Days 0, 14 and 28. As to the method: as §1, §2, §4
Insulin sensitivity (SI) and pancreatic compensation (PC) were measured by conducting ^2H-Glucose disposal test on Days 0, 14 and 28.
Time −4 h: Before the fast was begun on the morning of the GDT, a blood sample was taken to determine the random glucose level (see above). An additional blood sample was collected to determine the baseline ^2H2O and ^18O enrichments. The rats were weighed and the 4 h fast was begun. Water was available during the fast.
Time −3 h: One 1 hour after the start of the fast, 1.75 mg/g body weight of 10% H2^18O was administered by oral gavage (^2H2O-free H2O^18 water; 10% ^18O atom from Spectra; Cat. No 51350).
Time 0: 4 hours after the start of the fast, the blood glucose and insulin levels were determined. Rats received 4 ml/kg of a 50% glucose solution (comprised of 25% [6,6-^2H2] glucose and 25% D-glucose) by oral gavage.
At times 15, 30, 60 and 90 min post glucose challenge, blood glucose concentrations were again determined by a glucometer reading from tail vein blood. Additional blood samples were collected for insulin determinations. At 60 and 90 min post glucose challenge, whole blood was collected to determine the ^2H2O and H2^18O enrichments. All blood samples were centrifuged and the plasma was stored at −20° C. until assayed. The deuterium and oxygen-18 isotope enrichments of body water were determined by IRIS analysis of the water distillate of the plasma samples.
^2H2O enrichment was converted to mmol by multiplying enrichment (^2H2O APE) by the total body water pool size and dividing by 20 (molecular weight of ^2H2O). Total ^2H2O produced was calculated as the percent of the [6,6-^2H2] glucose load administered. Plasma insulin and glucose areas under the curve (AUC 60 min) were calculated using the trapezoidal method (GraphPad Prism).
Two parameters were calculated from the ^2H-GDT: • 1. Insulin sensitivity index (SI)=^2H2O production (% load)/(glucose AUC×insulin AUC). • 2. Pancreatic compensation (PC)=the absolute ^2H2O production as a percent of total [6,6-^2H2] glucose load (% load)/the integrated glucose response (glucose AUC; to correct for insulin-independent utilization). Statistics
Overall results of glucose and insulin measures were analyzed by a 2 way repeated measures ANOVA using drug and time (repeated) as factors. The primary analysis was followed by Bonferroni posttests to compare all groups. Data are considered significant at p<0.05. AUC 60 min values for glucose and insulin were analyzed by 1 way ANOVA followed by Tukey's comparison of all groups.

The mark [4] stands for this setting: 40 and 80 mg/kg (neither dose), 4 weeks.

For the molecule `CC(C)c1ccc(C(=O)NC(=N)N)cc1S(C)(=O)=O` [Compound A, Cariporide], the Fasting glucose concentration entry with obese Zucker fa/fa rats [1] (40 mg/kg, after 4 weeks of administration, 4 h fast) is recorded as “increased”. For the same molecule, in the test on obese Zucker fa/fa rats [1] (80 mg/kg, 4th week of treatment), the “Fasting insulin relative to the fa/fa vehicle control” value is listed as “significantly decreased”. Moreover, the “Baseline Insulin (fasting)” value in the test with obese Zucker fa/fa rats [1] (40 mg/kg group) was determined as 17.6 ± 5.1 ng/mL; with obese Zucker fa/fa rats [1] (80 mg/kg group), 15.9 ± 5.5 ng/mL. The entries for the “Change in Insulin (fasting)” value with obese Zucker fa/fa rats [1] (40 mg/kg) and with obese Zucker fa/fa rats [1] (80 mg/kg) were 0.6 ± 9.6 ng/mL and -3.4 ± 8.2 ng/mL, respectively. In addition, the “Week 4 Insulin (fasting)” value in the test on obese Zucker fa/fa rats [1] (40 mg/kg in chow) stood at 18.2 ± 11.8 ng/mL; with obese Zucker fa/fa rats [1] (80 mg/kg in chow) it was 12.5 ± 7.5 ng/mL. Further, the “Base line HbA1c” value turned out to be 4.0 ± 0.5% with obese Zucker fa/fa rats [2] (40 mg/kg group) and 3.9 ± 0.4% in the test with obese Zucker fa/fa rats [2] (80 mg/kg group). The “Change in HbA1c” value in the test with obese Zucker fa/fa rats [2] (40 mg/kg) is reported as 0.4 ± 0.6%; with obese Zucker fa/fa rats [2] (80 mg/kg), 0.4 ± 0.9%. Also, the entries for the “Week 4 HbA1c” value in the test with obese Zucker fa/fa rats [2] (40 mg/kg in chow) and in the test on obese Zucker fa/fa rats [2] (80 mg/kg in chow) were 4.4 ± 0.2% and 4.4 ± 0.52%, respectively. Further, in the test with obese Zucker fa/fa rats [3] (40 mg/kg, 4 weeks of treatment), the “Glucose level at the 90 min time point of the 2H-GDT vs fa/fa vehicle” value was “elevated above that of the fa/fa vehicle treated rats”. Besides, in the test on obese Zucker fa/fa rats [3] (4 weeks after start of treatment, 40 and 80 mg/kg), the “Blood glucose and insulin concentrations in response to glucose challenge (2H-GDT)” value is “continued to have elevated”. Moreover, the Glucose tolerance result in the test with obese Zucker fa/fa rats [3] (4 weeks of treatment) is “did not improve”. Besides, the “Glucose levels (either fasting or in response to challenge)” value in the test with obese Zucker fa/fa rats [3] (setting [4]) is reported as “Neither dose of Compound A significantly improved”. The “Insulin sensitivity (SI)” value with obese Zucker fa/fa rats [3] (setting [4]) is “Neither dose of Compound A significantly improved”. In the test with obese Zucker fa/fa rats [3] (setting [4]), the “Pancreatic compensation (PC)” value is reported as “Neither dose of Compound A significantly improved”. The “Glucose or insulin response to glucose challenge (2H-GDT)” value in the test on obese Zucker fa/fa rats [3] (after 2 weeks of treatment, 40 and 80 mg/kg) is “did not affect”.

The record behind these values is patent US10292949B2, “Pharmaceutical composition comprising rimeporide for treating diseases associated with insulin resistance and β-cell dysfunction” (Merck Patent GmbH, priority 2008, dated 2019).
